Tests used:
[1] = molecular target: T1, Glutamine synthetase (GS) (Mus musculus, UniProt P15105, T301E); test: gamma-glutamyl hydroxamate assay, absorbance […] nm; assay type: biochemical
T1 construct: gene Glul; pET-24a(+) plasmid pNG189, codon optimised; E. coli BL21(DE3); HisTrap and Superdex 200; homomeric decamer

[2] = molecular target: T2, Glutamine synthetase (GS) (Mus musculus, UniProt P15105, T301V); test: gamma-glutamyl hydroxamate assay, absorbance […] nm; assay type: biochemical
T2 construct: gene Glul; pET-24a(+) plasmid pNG189, codon optimised; E. coli BL21(DE3); HisTrap and Superdex 200; homomeric decamer

[3] = molecular target: T3, Glutamine synthetase (GS) (Mus musculus, UniProt P15105, T301A); test: gamma-glutamyl hydroxamate assay, absorbance […] nm; assay type: biochemical
T3 construct: gene Glul; pET-24a(+) plasmid pNG189, codon optimised; E. coli BL21(DE3); HisTrap and Superdex 200; homomeric decamer

[4] = molecular target: T4, Glutamine synthetase (GS) (Mus musculus, UniProt P15105); test: gamma-glutamyl hydroxamate assay, absorbance […] nm; assay type: biochemical
T4 construct: gene Glul; pET-24a(+) plasmid pNG189, codon optimised; E. coli BL21(DE3); HisTrap and Superdex 200; homomeric decamer

[5] = molecular target: T4, Glutamine synthetase (GS); test: thermal shift (SyproOrange differential scanning fluorimetry); assay type: binding; conditions: varying MgCl2 and ATP; HEPES pH 7.5, 300 mM NaCl, 10% glycerol, 500 μM TCEP
[6] = substrate: N[C@@H](CCC(=O)O)C(=O)O; test: purified protein; assay type: biochemical, Mus musculus; conditions: unphosphorylated GS (PKA + PKI), 20 mM ATP, 20 mM hydroxylamine, 20 mM MgCl2, imidazole pH 7.4, room temperature

T3 sequence (P15105 2-373 T301A): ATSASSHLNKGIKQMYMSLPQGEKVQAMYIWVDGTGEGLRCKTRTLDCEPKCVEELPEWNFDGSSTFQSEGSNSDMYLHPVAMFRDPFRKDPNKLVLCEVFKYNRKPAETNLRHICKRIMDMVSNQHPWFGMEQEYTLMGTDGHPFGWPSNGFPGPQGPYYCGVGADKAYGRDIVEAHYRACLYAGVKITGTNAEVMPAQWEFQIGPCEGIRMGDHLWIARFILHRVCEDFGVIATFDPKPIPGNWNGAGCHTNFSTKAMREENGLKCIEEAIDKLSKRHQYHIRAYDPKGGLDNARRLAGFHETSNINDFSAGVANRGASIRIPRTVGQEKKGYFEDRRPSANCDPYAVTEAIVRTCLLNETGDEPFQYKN
T2 sequence (P15105 2-373 T301V): as the sequence (P15105 2-373 T301A) above, with A300V counted along it
T1 sequence (P15105 2-373 T301E): as the sequence (P15105 2-373 T301A) above, with A300E counted along it

CS(=N)(=O)CC[C@H](N)C(=O)O (stereo partly drawn) [methionine sulfoximine]
IC50 [1]: > 100 mM
IC50 [2]: 7.6 ± 0.5 mM
IC50 [3]: > 100 mM
IC50 [4]: 0.182 ± 0.014 mM

Nc1ncnc2c1ncn2[C@@H]1O[C@H](COP(=O)(O)OP(=O)(O)OP(=O)(O)O)[C@@H](O)[C@H]1O [ATP]
Tm [5]: incubation with MgATP increased their melting temperatures to similar extents

B1: Glutamine synthetase (GS) (Mus musculus) (protein)
chain: ATSASSHLNKGIKQMYMSLPQGEKVQAMYIWVDGTGEGLRCKTRTLDCEPKCVEELPEWNFDGSSTFQSEGSNSDMYLHPVAMFRDPFRKDPNKLVLCEVFKYNRKPAETNLRHICKRIMDMVSNQHPWFGMEQEYTLMGTDGHPFGWPSNGFPGPQGPYYCGVGADKAYGRDIVEAHYRACLYAGVKITGTNAEVMPAQWEFQIGPCEGIRMGDHLWIARFILHRVCEDFGVIATFDPKPIPGNWNGAGCHTNFSTKAMREENGLKCIEEAIDKLSKRHQYHIRAYDPKGGLDNARRLTGFHETSNINDFSAGVANRGASIRIPRTVGQEKKGYFEDRRPSANCDPYAVTEAIVRTCLLNETGDEPFQYKN
notes: pET-24a(+) plasmid pNG189, codon optimised; E. coli BL21(DE3); HisTrap and Superdex 200; homomeric decamer
Km [6]: 21 ± 1 mM

— publication PMC6536897, “Phosphorylation of Glutamine Synthetase on Threonine 301 Contributes to Its Inactivation During Epilepsy” (Frontiers in Molecular Neuroscience, 2019)
